Experimental data taken from article PMC10349806 (Nature Communications, 2023).
Where a chain is given by its changes, count along the chain named. Values joined by “and” are separate entries in the source; they are usually repeats but may differ in a detail not shown here. Equal values may be shown once.

How the values were obtained:
PfCRT variant E75A = molecular target: T1, PfCRT variant E75A (Plasmodium falciparum, UniProt Q9N623, A220S/I356T/K76T/M74I/N326S/N75A/Q271E/R371I); test: CQ uptake assay, oocytes expressing E75A; format: cell-based
T1 sequence (Q9N623 1-424 M74I/N75A/K76T/A220S/Q271E/N326S/I356T/R371I): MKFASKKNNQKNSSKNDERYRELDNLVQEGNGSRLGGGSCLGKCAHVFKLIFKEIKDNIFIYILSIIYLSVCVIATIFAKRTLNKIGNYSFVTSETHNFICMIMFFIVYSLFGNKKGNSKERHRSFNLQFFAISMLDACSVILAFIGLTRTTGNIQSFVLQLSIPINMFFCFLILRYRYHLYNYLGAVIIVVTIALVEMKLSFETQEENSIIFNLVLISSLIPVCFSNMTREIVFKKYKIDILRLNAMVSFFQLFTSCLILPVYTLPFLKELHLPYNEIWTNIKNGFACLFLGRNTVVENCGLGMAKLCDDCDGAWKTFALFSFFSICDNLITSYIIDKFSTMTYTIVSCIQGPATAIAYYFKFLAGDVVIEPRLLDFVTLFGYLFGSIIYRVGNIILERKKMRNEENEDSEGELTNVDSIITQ
Method: (§1) Site-directed mutagenesis of PfCRT^Dd2 was performed as described using the megaprimer method with overlap extension[21],[54]. The primer pairs used are listed in Supplementary Table 6. Please note that a codon-optimized and oocyte-adapted version of PfCRT^Dd2 was used[22] (Supplementary Fig. 16). The resulting DNA fragment was cloned into the SP64T expression vector and verified by sequencing.
(§2) Oocytes were obtained as described previously. Briefly, adult (>2 years old) female X. laevis frogs (NASCO) were anesthetized in a cooled solution of ethyl 3-amino benzoate methanesulfonate (0.1%, w/v), followed by a surgical removal of parts of the ovary. The ovary lobes were carefully dissected and small pieces of oocytes were incubated in Ca^2+-free ND96 buffer (96 mM NaCl, 2 mM KCl, 1 mM MgCl2 buffered with 5 mM HEPES/NaOH, pH 7.5) supplemented with collagenase D (0.1%, w/v; Roche), BSA (0.5%, w/v), and 9 mm Na2HPO4 at 18 °C for 14-16 h while gentle shaking. After incubation, the oocytes were carefully washed several times with ND96 buffer (96 mM NaCl, 2 mM KCl, 1.8 mM CaCl2, 1 mM MgCl2 buffered with 5 mM HEPES/NaOH, pH 7.5) supplemented with 100 mg l^−1 gentamycin). Defolliculated and healthy-looking stage V-VI oocytes were manually selected for RNA microinjection. The RNA was generated as following: The codon-optimized sequences of PfCRT variants were cloned into the pSP64T expression vector. After vector linearization using the restriction endonucleases BamHI or SalI (New England Biolabs), transcription was performed using the in vitro SP6 mMessage mMachine Kit (Ambion)[34]. The obtained RNA was kept at −80 °C and diluted with nuclease-free water to a concentration of 0.6 μg μl^−1. Precision-bore glass capillary tubes (3.5-inch glass capillaries; Drummond Scientific Co.) were pulled on a vertical puller (P-87 Flaming/Brown micropipette puller, Sutter Instrument Co.), graduated, and placed on a microinjector (Nanoject II Auto-Nanoliter Injector, Drummond Scientific Co.). 50 nl of nuclease-free water alone (control oocytes) or 50 nl of 0.6 μg μl^−1 RNA were injected under stereomicroscopic control. Injected oocytes were incubated for 46–72 h at 18 °C with twice-daily buffer changes before usage in experiments.
(§3) Drug uptake assays were performed as described previously[21],[22],[24],[34]. […] The direction of radio-labeled drug transport is here from the mostly acidic extracellular solution (pH 4.5 or 6.0, as indicated) into the oocyte cytosol (pH ∼ 7.2), which corresponds to the efflux of drug from the acidic digestive vacuole (pH 5.2) into the parasite cytoplasm (pH 7.2). The topology of PfCRT in the oolemma is such that both the N- and C-terminus face the extracellular milieu[3],[22]. In the parasite, the N- and C-terminus face the lumen of the digestive vacuole. […] For determination of the amount of drug uptake for each oocyte, the reaction medium was removed and the oocytes were washed three times with 2 ml of ice-cold ND96 buffer. Each oocyte was individually transferred to a scintillation vial containing 5% sodium dodecyl sulfate (200 μl) for lysis. […] Oocytes that were injected with water instead of RNA were analyzed in parallel, representing the uptake of a drug by diffusion and/or endogenous permeation pathways. […] The specific PfCRT-mediated uptake was determined by subtracting the corresponding background value measured in water-injected oocytes from that of PfCRT-expressing oocytes. […]

PfCRT variant Y89A = molecular target: T2, PfCRT variant Y89A (Plasmodium falciparum, UniProt Q9N623, A220S/I356T/K76T/M74I/N326S/N75E/Q271E/R371I/Y89A); test: CQ uptake assay, oocytes expressing Y89A; format: cell-based
T2 sequence (Q9N623 1-424 M74I/N75E/K76T/Y89A/A220S/Q271E/N326S/I356T/R371I): T1 sequence (Q9N623 1-424 M74I/N75A/K76T/A220S/Q271E/N326S/I356T/R371I) with A75E, Y89A
Method: as §1, §2, §3

[1] = pH 4.5, single replicates, Fig 1d left
[2] = pH 6.0, single replicates, Fig 1d left

## CCN(CC)CCCC(C)Nc1ccnc2cc(Cl)ccc12 (stereo not shown) [CQ, chloroquine]
PfCRT variant E75A; E75A, 50 µM CQ, 1 h, mean ± SEM
  Activity at pH 4.5: 0.89 ± 0.11 pmol h-1 oocyte-1
PfCRT variant E75A; E75A, CQ transport at pH 4.5 / pH 6.0
  R-value: 0.51 ± 0.05
PfCRT variant E75A; [1]
  E75A transport activity pH 4.5: 0.71 pmol oocyte-1 h-1 and 1.15 pmol oocyte-1 h-1 and 0.80 pmol oocyte-1 h-1
PfCRT variant E75A; pH 4.5 vs pH 6.0, Fig 1d left
  E75A R-value: 0.40 and 0.62 and 0.50
PfCRT variant E75A; [2]
  E75A transport activity pH 6.0: 1.76 pmol oocyte-1 h-1 and 1.84 pmol oocyte-1 h-1 and 1.60 pmol oocyte-1 h-1
PfCRT variant Y89A; Y89A, 50 µM CQ, 1 h, mean ± SEM
  Activity at pH 4.5: 0.73 ± 0.05 pmol h-1 oocyte-1
PfCRT variant Y89A; Y89A, CQ transport at pH 4.5 / pH 6.0
  R-value: 0.43 ± 0.06
PfCRT variant Y89A; [1]
  Y89A transport activity pH 4.5: 0.79 pmol oocyte-1 h-1 and 0.80 pmol oocyte-1 h-1 and 0.60 pmol oocyte-1 h-1
PfCRT variant Y89A; pH 4.5 vs pH 6.0, Fig 1d left
  Y89A R-value: 0.47 and 0.40 and 0.37
PfCRT variant Y89A; [2]
  Y89A transport activity pH 6.0: 1.68 pmol oocyte-1 h-1 and 1.99 pmol oocyte-1 h-1 and 1.64 pmol oocyte-1 h-1
